Experimental data published in article PMC5225172 (Cancer Chemotherapy and Pharmacology, 2016).

Assays:
[1] = Phase I safety and tolerability: adverse events (NCI CTCAE v4.03), DLT, MTD; conditions: human, in vivo, iv
Protocol: (§1) Dosing on days 8 and 15 was permitted within a window of ±1 day if necessary, and dosing was considered missed if delayed by more than 1 day. Dose delays of up to 2 weeks were permitted for day 1 of cycle 2 or later, although for days 8 and 15 of cycle 2 and subsequent cycles, dosing within a window of ±3 days was permitted, except for in cycle 3, where dosing was to be administered within ±1 day of days 8 and 15.
(§2) Patients were enrolled into cohort 1 and were evaluated for the occurrence of a dose-limiting toxicity (DLT) as defined by the National Cancer Institute Common Terminology Criteria for Adverse Events version 4.03. […] Completion of cycle 1 in cohort 1 constituted study completion.
(§3) Protocol-defined DLTs included non-hematologic adverse events of grade ≥3. Hyperglycemia defined as a DLT was to be determined based on serum glucose values. Hematologic DLTs were defined as grade 4 neutropenia for ≥3 days, an absolute neutrophil count <1000 with fever ≥38.5 °C, and grade 4 thrombocytopenia. Patients with non-hematologic DLTs were to discontinue study treatment.
(§4) Screening comprised: provision of written, informed consent; demographics; baseline characteristics; concomitant medications; safety assessments (adverse events [defined as any new finding not present in the patient’s medical history, or a worsening of a prior medical history finding], vital signs, laboratory tests, physical examination, 12-lead electrocardiogram, multigated acquisition scan, or echocardiogram); tumor measurements by computed tomography or magnetic resonance imaging; disease assessment as defined by RECIST version 1.1; ophthalmologic examination; chest computed tomography; and ECOG PS assessment. The following assessments were also performed on cycle 1, day 1: safety; ECOG PS assessment; concomitant medications; blood samples for PK analysis; serum samples for glucose analysis; serum insulin; urinalysis; serum ketones; and post-dose echocardiogram. Safety assessments, blood pressure measurements, blood sampling for PK analysis, and urinalysis were also performed on days 8 and 15 of cycle 1.

[2] = system: Japanese patients with advanced or refractory solid tumors; assay: as above
Protocol: as §1, §2, §3, §4

[3] = clinical; conditions: human, in vivo
Protocol: Additional PK samples were collected at either 72, 96, or 120 h following the start of infusion. […] Blood pressure monitoring was performed every 5 min before dosing on cycle 1, day 1 until the observation of two consecutive measurements <150 mmHg (systolic) and <90 mmHg (diastolic). […] Serum samples for glucose analysis were collected immediately before the first infusion and in parallel with PK sampling through to 49 h post-dose. Glucose samples taken at 25 h post-dose were to be fasting, where possible and if deemed safe. Capillary blood glucose testing was to be performed for hyperglycemia management as determined appropriate by the investigator; hyperglycemia was defined as capillary blood glucose >200 mg/dL and was to be treated with short-acting insulin. Tumor measurement and disease assessment according to RECIST version 1.1 were conducted every two cycles by the investigator. This study was primarily a descriptive safety and tolerability trial, and no formal sample-size estimation was performed. Summary statistics were used for demographics, baseline characteristics, and PK parameters. Frequency tables were used for categorical variables.

[4] = system: class I PI3K; conditions: compared with the p110β and p110γ isoforms; cited from earlier work
[5] = system: patients with advanced solid tumors and non-Hodgkin's lymphomas; conditions: cited from earlier work

## COc1c(OCCCN2CCOCC2)ccc2c1N=C(NC(=O)c1cnc(N)nc1)N1CCN=C21 [copanlisib, Copanlisib]
[1]
  MTD at 28 days: 0.8 mg/kg
[2]; Cohort 1, 0.4 mg/kg (n = 3)
  Treatment-emergent AE of all grades, irrespective of causality: Flu-like symptoms: 0 n (%)
[2]; Cohort 2, 0.8 mg/kg (n = 7)
  Treatment-emergent AE of all grades, irrespective of causality: Flu-like symptoms: 2 (28.6) n (%)
[2]; Total (N = 10)
  Treatment-emergent AE of all grades, irrespective of causality: Flu-like symptoms: 2 (20.0) n (%)
[2]; human, in vivo
  AEs leading to permanent discontinuation of study drug: 2 (20.0) n (%)
  Adverse events leading to study discontinuation: 20.0%
  Any AE: 10 (100) n (%)
  Any drug-related AE: 10 (100) n (%)
  Any serious AE: 3 (30.0) n (%)
  Grade 3 AE: 5 (50.0) n (%)
  Grade 3 drug-related AE: 2 (20.0) n (%)
  Grade 3 hypertension: no reports of grade 3 hypertension
  Grade 4 AE: 1 (10.0) n (%)
  Hematologic and biochemical toxicity event: anemia: 90.0%
  Hematologic and biochemical toxicity event: hypoalbuminemia: 90.0%
  Hematologic and biochemical toxicity event: lymphocytopenia: 90%
  TEAE of all grades irrespective of causality: constipation: 50.0%
  TEAE of all grades irrespective of causality: hyperglycemia: 80.0%
  TEAEs of grade 3 as worst grade: 50.0%
  TEAEs of grade 3 as worst grade considered drug-related: 20.0%
  Treatment-emergent AE of all grades, irrespective of causality: Acneiform rash: 3 (30.0) n (%)
  Treatment-emergent AE of all grades, irrespective of causality: Anemia: 3 (30.0) n (%)
  Treatment-emergent AE of all grades, irrespective of causality: Anorexia: 3 (30.0) n (%)
  Treatment-emergent AE of all grades, irrespective of causality: Constipation: 5 (50.0) n (%)
  Treatment-emergent AE of all grades, irrespective of causality: Cough: 2 (20.0) n (%)
  Treatment-emergent AE of all grades, irrespective of causality: Fever: 4 (40.0) n (%)
  Treatment-emergent AE of all grades, irrespective of causality: Hyperglycemia: 8 (80.0) n (%)
  Treatment-emergent AE of all grades, irrespective of causality: Hypertension: 7 (70.0) n (%)
  Treatment-emergent AE of all grades, irrespective of causality: Increased ALP: 4 (40.0) n (%)
  Treatment-emergent AE of all grades, irrespective of causality: Increased ALT: 3 (30.0) n (%)
  Treatment-emergent AE of all grades, irrespective of causality: Increased AST: 2 (20.0) n (%)
  Treatment-emergent AE of all grades, irrespective of causality: Insomnia: 2 (20.0) n (%)
  Treatment-emergent AE of all grades, irrespective of causality: Investigations, other: 4 (40.0) n (%)
  Treatment-emergent AE of all grades, irrespective of causality: Leukopenia: 4 (40.0) n (%)
  Treatment-emergent AE of all grades, irrespective of causality: Lymphocytopenia: 4 (40.0) n (%)
  Treatment-emergent AE of all grades, irrespective of causality: Malaise: 2 (20.0) n (%)
  Treatment-emergent AE of all grades, irrespective of causality: Nausea: 3 (30.0) n (%)
  Treatment-emergent AE of all grades, irrespective of causality: Neutropenia: 4 (40.0) n (%)
  Treatment-emergent AE of all grades, irrespective of causality: Oral mucositis: 2 (20.0) n (%)
  Treatment-emergent AE of all grades, irrespective of causality: Pruritus: 2 (20.0) n (%)
  Treatment-emergent AE of all grades, irrespective of causality: Tumor pain: 4 (40.0) n (%)
[2]; human, in vivo, 28 days
  AEs leading to dose modification: 1 (33.3) n (%)
  Patients with dose-limiting toxicity (DLT): No patients treated at 0.4 mg/kg experienced a dose-limiting toxicity
[2]; in vivo
  Cases of colitis: no cases of colitis
  Deaths on study: No deaths on study were reported
  Hematologic and biochemical toxicity event: hyperglycemia: all ten patients
  Hematologic and biochemical toxicity event: increased creatinine: all ten patients
  Patients with dose-limiting toxicity (DLT): No patients experienced DLTs
  Patients with grade ≥3 elevated aminotransferase levels: Two patients
  Relationship to study drug: grade 3 Anemia: Not likely to be related
  Relationship to study drug: grade 3 Diarrhea: Possibly related
  Relationship to study drug: grade 3 Hepatobiliary disorder: Not likely to be related
  Relationship to study drug: grade 3 Hyperglycemia: Possibly related
  Relationship to study drug: grade 3 Increased ALP: Not likely to be related
  Relationship to study drug: grade 3 Increased ALT: Not likely to be related
  Relationship to study drug: grade 3 Insomnia: Not likely to be related
  Relationship to study drug: grade 3 Lymphocytopenia: Possibly related
  Relationship to study drug: grade 3 Stroke: Not likely to be related
  Relationship to study drug: grade 4 Increased AST: Not likely to be related
[2]; irrespective of causality
  Grade 5 adverse events: No grade 5 adverse events were reported
[3]; 0.4 mg/kg, Geometric mean terminal half-life
  half-life: ~32 h
[3]; 0.8 mg/kg, Geometric mean terminal half-life
  half-life: ~36 h
[3]; 0.8 mg/kg, Plasma half-life
  half-life: 32 to 36 h
[3]; iv, 0.4 mg/kg
  AUC: 1400 ng·h/mL
[3]; iv, 0.4 mg/kg, AUC(0–8)
  AUC(0-t): 483 ng·h/mL
[3]; iv, 0.4 mg/kg, AUC(0–25)
  AUC(0-t): 789 ng·h/mL
[3]; iv, 0.4 mg/kg, C max
  Cmax: 215 ng/mL
[3]; iv, 0.4 mg/kg, t 1/2 (half-life associated with terminal slope)
  half-life: 32.2 h
[3]; iv, 0.4 mg/kg, tmax
  Tmax: 1.02 h
[3]; iv, 0.8 mg/kg
  AUC: 2350 ng·h/mL
  AUC(0–25): 1290 (10.1) µg·h/L
  Tmax: 0.75 [0.48-1.05] h
[3]; iv, 0.8 mg/kg, AUC(0–8)
  AUC(0-t): 812 ng·h/mL
[3]; iv, 0.8 mg/kg, AUC(0–25)
  AUC(0-t): 1280 ng·h/mL
[3]; iv, 0.8 mg/kg, t1/2 (half-life associated with terminal slope)
  half-life: 35.6 h
[3]; iv, 0.8 mg/kg, tmax
  Tmax: 0.53 h
[4]
  PI3K isoform preference: preferential activity against the p110α and p110δ isoforms of PI3K
[5]; Patnaik et al. study
  Grade 3 hypertension: 19%
  Incidence of all-grade hypertension: 30%
[5]; first-in-human Phase I study, non-Japanese patients, once weekly
  Maximum tolerated dose (MTD): 0.8 mg/kg
[5]; first-in-human study
  Patients with grade ≥3 elevated aminotransferase levels: < 10%
  Time of hyperglycemia peak after the start of infusion: 5 to 8 h
  Time of hypertension peak after the start of infusion: 1 to 2 h
